Test results published in patent US11186606B2, “Compositions and methods of modulating the immune response by activating alpha protein kinase 1” (Shanghai Yao Yuan Biotechnology Co., Ltd., priority 2017, dated 2021).

Assays:
ALPK1 = ALPK1 (Homo sapiens, UniProt Q96QP1); experiment: In vitro kinase assay of ALPK1-dependent TIFA phosphorylation; format: biochemical
Protocol: We performed an in vitro kinase assay with H1b-ADP and H1b-ADP-6L along with ALPK1 protein (2 nM), and TIFA protein (1.6 uM) in kinase buffer containing 50 uM ATP. TIFA phosphorylation was analyzed by denaturing gel electrophoresis followed by western blotting using an anti-phosphothreonine antibody. H1b-ADP or H1b-ADP-6L was added at 2 nM, 0.4 nM, 80 pM, 16 pM, and 3 pM.
To test this, we performed an in vitro kinase reaction for ALPK1-dependent TIFA phosphorylation in the presence of either HBP or HIdA purified from E. coli containing inactivated HIdE, or in the presence of HBP and HIdA purified from the same HIdE wild-type E. coli used in the previous experiments. Phosphorylated TIFA (three concentrations, 1%, 0.2% and […]) was detected as described above by denaturing gel electrophoresis followed by Western analysis.

CT26 cells = experiment: mRNA expression in CT26 tumor tissue after intratumoral injection (qPCR); format: in vivo, BALB/c mice; settings: 4 hours post intratumoral injection, 2.5 μg, 250 ng, 50 ng
Protocol: We next asked whether H1b-ADP caused an increase in pro-inflammatory cytokines within the tumor. Tumor cells (2×10^5 per 100 μL CT26 cells) were inoculated subcutaneously into the right flank of BALB/c mice. 2.5 μg (n=2), 250 ng (n=2), 50 ng (n=2) of H1b-ADP or control (n=2) was intratumorally injected (20 uL) at day 7 post inoculation. 4 hours post-injection, tumor issues were dissected and harvested. Total RNA was isolated (TRIzol™, ThermoFisher) and cDNA was synthesized (PrimeScript™ RT reagent Kit, Takara) and amplified (AceQ™ qPCR SYBR™ Green Master Mix, Vazyme Biotech using a QuantStudio™ 7 Flex Real-Time PCR Systems (ThermoFisher) according to manufacturers' protocols.

[1] = tested on: phosphatase activity in the serum; experiment: Incubation of H1b-ADP with FBS, product analysed by LC-MS; format: in vitro ADME, bovine; settings: incubated with FBS, LC-MS; AMP formed
Source text: FBS contains 110-352 U/ml alkaline phosphatase.

[2] = tested on: mouse bone marrow-derived macrophages; experiment: Cxcl1 mRNA expression in mouse bone marrow-derived macrophages (qPCR); format: cell-based; settings: 0.4 nM or 2 nM, 2.5 hours
Protocol: In these experiments, mouse bone marrow-derived macrophages were treated with 0.4 nM or 2 nM H1b-ADP for 2.5 hours and harvested for mRNA expression analysis of Cxcl1 by qPCR. […] Accordingly, very low doses of H1b-ADP, or an agonist thereof, may be used to enhance or potentiate an immune response in a local tissue.

ALPK1, sequence (Q96QP1 whole entry): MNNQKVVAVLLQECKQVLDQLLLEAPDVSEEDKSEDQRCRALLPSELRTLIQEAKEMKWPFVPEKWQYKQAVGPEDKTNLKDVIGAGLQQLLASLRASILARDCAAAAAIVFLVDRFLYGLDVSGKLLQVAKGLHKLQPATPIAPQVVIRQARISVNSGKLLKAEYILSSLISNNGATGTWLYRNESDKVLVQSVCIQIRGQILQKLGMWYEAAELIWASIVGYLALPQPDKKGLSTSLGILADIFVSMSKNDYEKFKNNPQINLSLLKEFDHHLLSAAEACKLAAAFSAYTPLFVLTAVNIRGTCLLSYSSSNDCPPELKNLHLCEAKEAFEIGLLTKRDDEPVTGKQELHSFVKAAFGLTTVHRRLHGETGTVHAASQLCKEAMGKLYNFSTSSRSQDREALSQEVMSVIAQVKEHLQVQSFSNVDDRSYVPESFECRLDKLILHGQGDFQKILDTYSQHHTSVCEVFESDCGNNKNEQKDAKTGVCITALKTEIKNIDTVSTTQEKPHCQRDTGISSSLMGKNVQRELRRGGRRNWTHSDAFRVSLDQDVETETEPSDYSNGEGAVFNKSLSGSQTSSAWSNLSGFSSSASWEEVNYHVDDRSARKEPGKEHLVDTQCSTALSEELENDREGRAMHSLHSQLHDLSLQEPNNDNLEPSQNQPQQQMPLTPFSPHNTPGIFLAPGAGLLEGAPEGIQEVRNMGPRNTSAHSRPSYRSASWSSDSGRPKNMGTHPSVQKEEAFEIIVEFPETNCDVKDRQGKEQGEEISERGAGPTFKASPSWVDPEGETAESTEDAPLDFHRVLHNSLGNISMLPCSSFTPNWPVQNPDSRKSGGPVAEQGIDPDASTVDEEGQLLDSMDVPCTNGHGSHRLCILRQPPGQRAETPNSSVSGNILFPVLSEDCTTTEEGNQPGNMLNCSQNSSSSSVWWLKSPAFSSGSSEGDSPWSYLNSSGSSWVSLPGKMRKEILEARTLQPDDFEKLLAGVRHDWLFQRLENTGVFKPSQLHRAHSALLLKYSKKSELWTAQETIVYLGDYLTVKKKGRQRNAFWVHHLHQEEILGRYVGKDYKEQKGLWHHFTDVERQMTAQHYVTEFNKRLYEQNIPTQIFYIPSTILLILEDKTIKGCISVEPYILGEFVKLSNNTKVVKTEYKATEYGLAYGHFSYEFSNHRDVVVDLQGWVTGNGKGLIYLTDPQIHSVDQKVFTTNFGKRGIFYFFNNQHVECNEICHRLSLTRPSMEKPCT

- TIFA phosphorylation (ALPK1-dependent signaling) (ALPK1; ALPK1 2 nM, TIFA 1.6 uM, 50 uM ATP, 2 nM to 3 pM): activated ALPK1-dependent signaling
- H1b-ADP amount with increasing incubation time [1]: declined
SMILES: Nc1ncnc2c1ncn2[C@@H]1O[C@H](COP(=O)(O)OP(=O)(O)O[C@@H]2O[C@H]([C@H](O)CO)[C@@H](O)[C@H](O)[C@@H]2O)[C@@H](O)[C@H]1O [Compound H1b-ADP, D-glycero-D-manno-heptose-1β-ADP]
- phosphorylation of the ALPK1 substrate TIFA (ALPK1; FIG. 7, chemically-synthesized compounds): TIFA is phosphorylated only in the presence of H1b-ADP
- PD-1 and PD-L1 expression (CT26 cells): increased
- mRNA expression of cytotoxic T cell marker CD8, T-helper cell marker CD4, regulatory T cell marker Foxp3 and Th1 cell marker T-bet (CT26 cells): increased
- mRNA expression of inflammatory cytokine IL-1b, Tnfa, Ifn gamma, and IL-6, and chemokine Cxcl1 (CT26 cells): increased
- Cxcl1 mRNA expression, fold change over non-treated control [2]: dose-dependent response
